These results are taken from patent US10736911B2, “Use of a DHODH inhibitor in combination with an inhibitor of pyrimidine salvage” (The Board of Trustees of the Leland Stanford Junior …, priority 2015, dated 2020).

Assay [1] has as its system DENV. Put plainly: DENV antiviral assay for combination of GSK983 and DP. It counts as cell-based, dengue virus serotype 2 strain 16681. Conditions: Dengue virus.
A further assay concerns MV4-11 cells. The assay is described as follows: MV4-11 cell killing, DP with GSK983 in uridine supplemented media. The format is cell-based. Conditions: Homo sapiens, 158 nM GSK983, 20 μM uridine supplemented media.
Assay [2] concerns K562 cells. The assay is described as follows: K562 cell count, DP with GSK983 in uridine supplemented media. The format is cell-based. The following applies: Homo sapiens, 50 nM GSK983, 20 μM uridine supplemented media, 72 h.
The subject of assay [3] is uridine salvage in K562 and A549 cells. The assay is described as follows: Uridine salvage inhibition by 5-ethynyl-uridine (5-EU) incorporation and click chemistry. Conditions: Homo sapiens. The format is cell-based.
The subject of assay [4] is A549 lung cancer cell line. Put plainly: A549 cell count, DP with GSK983 in uridine supplemented media. It counts as cell-based. The following applies: Homo sapiens, 158 nM GSK983, 20 μM uridine supplemented media, 72 h, read-out: IC50(DP), A549 viable cell count.
Assay [5] deals with variety of unrelated viruses. The following applies: Harvey et al. (2009); read-out: EC50, inhibition of replication of a variety of unrelated viruses in vitro; cited from earlier work.
The next assay relates to VEEV. The assay is described as follows: microbe, parasite or virus in culture. It counts as cell-based, Venezuelan equine encephalitis virus (vaccine strain TC-83). Conditions: Venezuelan equine encephalitis virus, A549, read-out: IC50, inhibition of VEEV replication.
Assay [6] relates to DENV. Put plainly: DENV antiviral assay (DENV-Luc replication in A549 cells). The format is cell-based, dengue virus serotype 2 strain 16681. Conditions: for IC50: Dengue virus, A549, 72 h.
For assay [7], the system named is DENV. The format is cell-based, dengue virus serotype 2 strain 16681. Conditions: 48 nM GSK983, 20 μM uridine, UCK2 shRNA derivative.
The subject of assay [8] is K562 cells. The assay is described as follows: GSK983 dose response, K562 cell growth (viable cells by flow cytometry). It counts as cell-based. The following applies: Homo sapiens, 72 h treatment, viable cells counted by flow cytometry, read-out: IC50, inhibition of K562 cell growth. The protocol:
GSK983 dose response and growth time course in K562 cells. To determine the dose response of K562 cells to GSK983, K562 cells were seeded into 24-well plates at a density of 50,000 cells/mL and treated with GSK983 at the indicated concentration for 72 h. Following 72 h treatment, cells were harvested and the density of viable cells was determined by flow cytometry (FSC/SSC) using a BD Accuri C6 Flow Cytometer. IC50 values were calculated by fitting a 4-parameter logistic equation to the data. […] At the indicated time points, cells were harvested and the density of viable cells was determined by flow cytometry (FSC/SSC) using a BD Accuri C6 Flow Cytometer.

The test system of a further assay is A549 cells. The assay is described as follows: A549 cell viability assay accompanying the DENV assay. The following applies: 30 nM GSK983 and 1 mM deoxycytidine, 72 h. It counts as cell-based, human.
The test system of assay [9] is K562 cells. The assay is described as follows: Cell cycle analysis based on total DNA content (propidium iodide). The arrangement: species or system human. Conditions: 24 h GSK983 treatment. As for the experimental part:
Cell cycle analysis based on total DNA content (propidium iodide). […] Cells were treated with the indicated concentration of GSK983 for 24 h. […] Following 24 treatment, cells were harvested and pelleted (300 g, 5 min). The supernatant was removed by vacuum and the cells were washed (0.5 mL 1×PBS). Cells were resuspended in 70% EtOH (1 mL, 0° C.) with mild vortexing. Cells were fixed in 70% EtOH overnight at 4° C. The following day, fixed cells were pelleted (1900 g, 5 min), washed (0.5 mL 1×PBS), and resuspended in 200 μL of a total DNA content staining solution (1×PBS with 50 μg/mL RNase A and 10 μg/mL propidium iodide). Samples were incubated for 30 min at 37° C. and analyzed by flow cytometry using a BD Accuri C6 Flow Cytometer. Propidium iodide fluorescence was detected in FL2.

The target in a further assay is recombinant human DHODH (Homo sapiens, UniProt Q02127). The assay is described as follows: In vitro enzyme activity assay with recombinant human Δ29DHODH (DCPIP coupled assay). Conditions: recombinant human Δ29DHODH 10 nM, DHO 200 μM; read-out: Ki, DHODH, competitive with respect to decylubiquinone binding. The format is biochemical. As for the experimental part: The reduction of DCPIP can be monitored by the loss of absorbance at 610 nm (ε=21,500 M−1cm-1). Kinetic constants were calculated from measurements in which Δ29DHODH (10 nM) was either titrated with different concentrations of decylubiquinone (QD, 10-60 μM) at a fixed concentration of DHO (200 μM) or titrated with different concentrations of DHO (10-60 μM) at a fixed concentration of QD (100 μM). Enzymatic assays were conducted at 25° C. in a reaction buffer containing Tris (100 mM, pH 8.0), NaCl (150 mM), DCPIP (60 μM), glycerol (10% v/v), and Triton X-100 (0.1% v/v). The Km values for Δ29DHODH (15 μM for DHO and 14 μM for QD) were in good agreement with previously reported values for both the full-size and N-terminally truncated enzyme.
For each inhibitor compound, three reactions were prepared: a control reaction containing no inhibitor and two reactions containing different inhibitor concentrations. Δ29DHODH was incubated with inhibitor compounds at room temperature for 5 min. The indicated concentration of QD and DHO (200 μM) were added to the reaction mixtures and absorbance at 610 nm was monitored using a PerkinElmer Lamda 25 UV-Vis spectrophotometer. For enzyme activity assays, inhibitor compounds were prepared as 1 mM stock solutions in DMSO. A QD stock solution (10 mM) was prepared in a buffer containing Tris (100 mM, pH 8.0) and Triton X-100 (1.0% v/v). […]

Assay [10] relates to K562 cells. Put plainly: Annexin V-FITC/7-AAD apoptosis assay. It counts as cell-based, human. The following applies: 72 h GSK983 treatment. As for the experimental part: Annexin V-FITC/7-AAD apoptosis assay. K562 cells were seeded into 24-well plates at a density of 50,000 cells/mL and treated with the indicated concentration of GSK983 for 72 h. The final concentration of DMSO in each well was <0.1%. Following 72 h GSK983 treatment, cells were harvested and pelleted (399 g, 5 min). The supernatant was removed by vacuum. Cell death by apoptosis was analyzed using a BioVision Annexin V-FITC Apoptosis Kit (catalog number K101-100). A staining solution was prepared by first diluting the provided Annexin V-FITC solution in binding buffer according to the specifications of the manufacturer. 7-AAD was added from a stock solution in DMSO (0.67 mg/mL) such that the final concentration of 7-AAD in the staining solution was 2.5 μg/mL. Cell samples were resuspended in 0.5 mL of the staining solution. Samples were incubated at room temperature for 10 min in the dark and analyzed by flow cytometry using a BD Accuri C6 Flow Cytometer. FITC fluorescence was detected in FL1 and 7-AAD fluorescence was detected in FL3.

Another assay has as its target T1, recombinant human CMPK1 (Homo sapiens, UniProt P30085).
T1 sequence (P30085 1-196): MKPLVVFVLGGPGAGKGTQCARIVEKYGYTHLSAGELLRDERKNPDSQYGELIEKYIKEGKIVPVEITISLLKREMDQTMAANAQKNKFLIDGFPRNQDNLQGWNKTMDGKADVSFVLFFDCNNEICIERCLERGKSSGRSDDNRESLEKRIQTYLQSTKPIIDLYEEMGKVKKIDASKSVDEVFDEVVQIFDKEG
Put plainly: In vitro enzyme activity assay with recombinant human CMPK1 (ATP consumption). It counts as biochemical. Conditions: GSK983 concentrations up to 10 μM. The protocol:
In vitro enzyme activity assays with recombinant human CMPK1. The activity of recombinant human CMPK1 was measured in the presence of GSK983 using an ATP consumption assay. CMPK1 (10 nM) was added to a reaction buffer containing Tris (50 mM, pH 7.5), MgCl2 (2 mM), DTT (2 mM), ATP (100 μM), CMP (100 μM), and GSK983 (0-10 μM, from a DMSO stock solution). The final concentration of DMSO in all reaction mixtures was 2% (v/v). Enzyme activity assays were conducted at 37° C. The consumption of phosphoryl donor ATP was monitored using a Promega Kinase-Glo Luminescent Kinase Assay kit according to the manufacturer's instructions. We observed no effect of GSK983 on CMPK1 activity in vitro at GSK983 concentrations up to 10 μM.

In assay [11] the test system is chronic myelogenous leukemia (CML). Conditions: in vivo; cited from earlier work.

Where two headings read alike, the source gives them in different places.

Sequence of recombinant human DHODH (Q02127 30-395): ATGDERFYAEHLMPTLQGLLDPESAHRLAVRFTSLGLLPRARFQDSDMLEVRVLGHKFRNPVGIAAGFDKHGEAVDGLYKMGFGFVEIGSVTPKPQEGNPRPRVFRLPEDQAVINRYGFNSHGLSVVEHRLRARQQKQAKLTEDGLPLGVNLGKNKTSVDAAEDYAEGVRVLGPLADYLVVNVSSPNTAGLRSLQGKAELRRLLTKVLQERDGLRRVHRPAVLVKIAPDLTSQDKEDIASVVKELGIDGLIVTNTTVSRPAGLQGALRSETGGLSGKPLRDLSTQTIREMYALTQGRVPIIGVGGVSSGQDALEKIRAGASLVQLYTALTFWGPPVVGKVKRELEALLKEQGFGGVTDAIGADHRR

For `OCCN(CCO)c1nc(N2CCCCC2)c2nc(N(CCO)CCO)nc(N3CCCCC3)c2n1` [DP, dipyridamole], the EC50 with DENV [1] (A549, 48 h, read-out: EC50 of DP, DENV luciferase signal, 2 days post-infection) came out at 135 nM; with DENV [1] (A549, 72 h, read-out: EC50 of DP, DENV luciferase signal, 3 days post-infection), 164 nM. Moreover, the IC50 with MV4-11 cells was 110 nM; in the assay on K562 cells [2] it was 110 nM; in assay [3] it was 200 nM; in assay [4], 230 nM.
`O=C(N[C@@H]1CCCc2c1[nH]c1ccc(Cl)cc21)c1ccccn1` [GSK983, (R)—N-(6-Chloro-2,3,4,9-tetrahydro-1H-carbazol-1-yl)picolinamide]: the EC50 in assay [5] was 5 to 20 nM. The concentration for half-maximal inhibition (IC50) in the assay with VEEV was determined as 12.8 nM; with DENV [6] (read-out: IC50, inhibition of DENV replication), 13.3 nM; in the assay with DENV [6] (read-out: IC50, inhibition of DENV replication with exogenous deoxycytidine), 13.5 nM; with K562 cells [8] it was 21 nM. The “Reduction in DENV replication” value with DENV [6] (30 nM GSK983 and 1 mM deoxycytidine, A549 cells) is on record as around 90%. Besides, the “Antiviral activity against DENV with uridine supplementation” value with DENV [6] (A549 cells, 1 mM uridine) is recorded as “completely abolished the antiviral activity”. For the same molecule, in the assay with DENV [7], the “DENV replication in A549 UCK2 shRNA cells” value was “inhibited viral replication in the latter cell-line”. The “Effect on A549 cell growth” value in the assay with A549 cells is recorded as “minimal effect”. Also, in the assay on K562 cells [9], the Cell cycle effect result was “accumulation of K562 cells in S phase”. Further, at recombinant human DHODH, the Ki stood at 403 nM. The “Cell death by apoptosis” value in the assay with K562 cells [10] is on record as “dose dependent increase in K562 cell death by apoptosis”. The “Effect on in vitro CMPK1 activity” value at recombinant human CMPK1 is “no effect”.
As for `Cc1c(-c2ccc(-c3ccccc3F)cc2)nc2ccc(F)cc2c1C(=O)O` [brequinar], the “Efficacy towards CML in mouse models” value in [11] was “effective”.

The EC50 is the concentration giving half of the maximal effect. One may read the IC50 as the concentration that gives 50% inhibition. The term Ki denotes the dissociation constant of the complex between target and ligand, obtained from inhibition or displacement.
